Results as given in patent US9346798B2, “Dihydrobenzoxazine and tetrahydroquinoxaline sodium channel inhibitors” (AMGEN INC., priority 2012, dated 2016).

How the values were obtained:
Type in all cases: cell-based
Nav 1.7 [1] = biological target: T1, Nav 1.7 (Homo sapiens (Human), UniProt Q15858); experiment: Nav 1.7 in vitro PX assay, PatchXpress whole cell voltage clamp; details: HEK 293 cells stably transfected with human Nav1.7; for IC50: partially inactivated state (20 to 50% inactivation)
Summary of the method: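 Partially inactivated channels (20–50% inactivation at holding potential) were probed on automated patch clamp in stably transfected HEK293 cells, stepping to −10 mV for 20 msec every 10 s (0.1 Hz).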

Nav 1.5 = Nav 1.5 (Homo sapiens (Human), UniProt Q14524); experiment: Nav 1.5 in vitro assay, IonWorks Quattro (IWQ) population patch-clamp; details: HEK 293 cells stably transfected with Nav 1.5; 26th pulse to -20 mV
Nav 1.7 [2] = biological target: T1, Nav 1.7; experiment: Nav 1.7 in vitro assay, IonWorks Quattro (IWQ) population patch-clamp; details: HEK 293 cells stably transfected with Nav 1.7; 26th pulse to -20 mV

T1 sequence (Q15858 whole entry): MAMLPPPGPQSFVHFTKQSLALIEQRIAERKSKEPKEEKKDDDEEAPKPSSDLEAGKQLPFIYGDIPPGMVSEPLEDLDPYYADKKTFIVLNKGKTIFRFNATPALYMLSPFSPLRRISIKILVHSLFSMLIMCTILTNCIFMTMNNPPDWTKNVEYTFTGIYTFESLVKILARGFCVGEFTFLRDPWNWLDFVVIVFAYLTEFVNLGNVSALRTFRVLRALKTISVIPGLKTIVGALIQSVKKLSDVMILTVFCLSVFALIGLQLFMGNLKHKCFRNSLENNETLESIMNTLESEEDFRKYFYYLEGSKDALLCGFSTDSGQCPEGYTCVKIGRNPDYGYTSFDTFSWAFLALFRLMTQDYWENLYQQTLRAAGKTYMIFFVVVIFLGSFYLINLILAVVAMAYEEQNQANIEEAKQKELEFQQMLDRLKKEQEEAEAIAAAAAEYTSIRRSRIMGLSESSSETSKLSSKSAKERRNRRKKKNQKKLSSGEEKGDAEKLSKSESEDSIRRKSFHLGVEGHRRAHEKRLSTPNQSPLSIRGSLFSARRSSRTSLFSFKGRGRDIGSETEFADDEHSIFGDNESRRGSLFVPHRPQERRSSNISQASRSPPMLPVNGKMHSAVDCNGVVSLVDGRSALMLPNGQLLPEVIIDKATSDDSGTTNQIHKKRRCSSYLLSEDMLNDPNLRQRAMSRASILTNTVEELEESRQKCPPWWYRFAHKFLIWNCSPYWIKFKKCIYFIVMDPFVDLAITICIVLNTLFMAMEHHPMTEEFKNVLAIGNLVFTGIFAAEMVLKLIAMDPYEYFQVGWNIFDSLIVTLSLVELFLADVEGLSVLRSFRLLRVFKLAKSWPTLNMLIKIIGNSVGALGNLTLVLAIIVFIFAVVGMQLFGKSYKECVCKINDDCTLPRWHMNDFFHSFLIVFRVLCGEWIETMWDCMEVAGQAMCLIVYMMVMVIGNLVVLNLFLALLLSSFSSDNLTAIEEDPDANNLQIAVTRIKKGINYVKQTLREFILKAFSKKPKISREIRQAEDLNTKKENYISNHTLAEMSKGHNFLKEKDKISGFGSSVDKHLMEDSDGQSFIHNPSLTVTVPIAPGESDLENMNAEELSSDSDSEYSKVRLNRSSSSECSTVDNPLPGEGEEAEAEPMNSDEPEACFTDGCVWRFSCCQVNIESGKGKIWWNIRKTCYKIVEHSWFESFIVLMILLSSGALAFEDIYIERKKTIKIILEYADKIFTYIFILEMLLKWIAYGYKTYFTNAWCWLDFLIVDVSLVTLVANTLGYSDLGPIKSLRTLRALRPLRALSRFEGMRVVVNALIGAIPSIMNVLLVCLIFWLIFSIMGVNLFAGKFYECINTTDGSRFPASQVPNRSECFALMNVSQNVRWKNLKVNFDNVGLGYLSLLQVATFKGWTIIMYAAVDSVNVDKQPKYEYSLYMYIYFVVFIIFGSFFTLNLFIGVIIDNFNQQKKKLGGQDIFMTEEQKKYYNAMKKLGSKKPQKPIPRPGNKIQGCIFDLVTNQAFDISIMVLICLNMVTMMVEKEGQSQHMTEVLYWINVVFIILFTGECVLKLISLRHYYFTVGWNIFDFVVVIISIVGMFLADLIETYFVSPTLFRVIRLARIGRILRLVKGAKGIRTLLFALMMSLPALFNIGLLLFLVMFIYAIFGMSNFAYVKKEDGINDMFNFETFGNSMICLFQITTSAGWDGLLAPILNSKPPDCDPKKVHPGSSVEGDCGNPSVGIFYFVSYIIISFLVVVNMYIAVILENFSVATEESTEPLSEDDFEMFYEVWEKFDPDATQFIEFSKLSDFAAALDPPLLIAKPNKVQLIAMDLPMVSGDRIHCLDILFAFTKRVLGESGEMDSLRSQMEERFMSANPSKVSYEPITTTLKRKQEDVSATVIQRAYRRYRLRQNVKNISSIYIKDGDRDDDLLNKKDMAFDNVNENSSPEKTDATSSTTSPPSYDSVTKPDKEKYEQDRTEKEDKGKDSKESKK
Chain of Nav 1.5 (Q14524 whole entry): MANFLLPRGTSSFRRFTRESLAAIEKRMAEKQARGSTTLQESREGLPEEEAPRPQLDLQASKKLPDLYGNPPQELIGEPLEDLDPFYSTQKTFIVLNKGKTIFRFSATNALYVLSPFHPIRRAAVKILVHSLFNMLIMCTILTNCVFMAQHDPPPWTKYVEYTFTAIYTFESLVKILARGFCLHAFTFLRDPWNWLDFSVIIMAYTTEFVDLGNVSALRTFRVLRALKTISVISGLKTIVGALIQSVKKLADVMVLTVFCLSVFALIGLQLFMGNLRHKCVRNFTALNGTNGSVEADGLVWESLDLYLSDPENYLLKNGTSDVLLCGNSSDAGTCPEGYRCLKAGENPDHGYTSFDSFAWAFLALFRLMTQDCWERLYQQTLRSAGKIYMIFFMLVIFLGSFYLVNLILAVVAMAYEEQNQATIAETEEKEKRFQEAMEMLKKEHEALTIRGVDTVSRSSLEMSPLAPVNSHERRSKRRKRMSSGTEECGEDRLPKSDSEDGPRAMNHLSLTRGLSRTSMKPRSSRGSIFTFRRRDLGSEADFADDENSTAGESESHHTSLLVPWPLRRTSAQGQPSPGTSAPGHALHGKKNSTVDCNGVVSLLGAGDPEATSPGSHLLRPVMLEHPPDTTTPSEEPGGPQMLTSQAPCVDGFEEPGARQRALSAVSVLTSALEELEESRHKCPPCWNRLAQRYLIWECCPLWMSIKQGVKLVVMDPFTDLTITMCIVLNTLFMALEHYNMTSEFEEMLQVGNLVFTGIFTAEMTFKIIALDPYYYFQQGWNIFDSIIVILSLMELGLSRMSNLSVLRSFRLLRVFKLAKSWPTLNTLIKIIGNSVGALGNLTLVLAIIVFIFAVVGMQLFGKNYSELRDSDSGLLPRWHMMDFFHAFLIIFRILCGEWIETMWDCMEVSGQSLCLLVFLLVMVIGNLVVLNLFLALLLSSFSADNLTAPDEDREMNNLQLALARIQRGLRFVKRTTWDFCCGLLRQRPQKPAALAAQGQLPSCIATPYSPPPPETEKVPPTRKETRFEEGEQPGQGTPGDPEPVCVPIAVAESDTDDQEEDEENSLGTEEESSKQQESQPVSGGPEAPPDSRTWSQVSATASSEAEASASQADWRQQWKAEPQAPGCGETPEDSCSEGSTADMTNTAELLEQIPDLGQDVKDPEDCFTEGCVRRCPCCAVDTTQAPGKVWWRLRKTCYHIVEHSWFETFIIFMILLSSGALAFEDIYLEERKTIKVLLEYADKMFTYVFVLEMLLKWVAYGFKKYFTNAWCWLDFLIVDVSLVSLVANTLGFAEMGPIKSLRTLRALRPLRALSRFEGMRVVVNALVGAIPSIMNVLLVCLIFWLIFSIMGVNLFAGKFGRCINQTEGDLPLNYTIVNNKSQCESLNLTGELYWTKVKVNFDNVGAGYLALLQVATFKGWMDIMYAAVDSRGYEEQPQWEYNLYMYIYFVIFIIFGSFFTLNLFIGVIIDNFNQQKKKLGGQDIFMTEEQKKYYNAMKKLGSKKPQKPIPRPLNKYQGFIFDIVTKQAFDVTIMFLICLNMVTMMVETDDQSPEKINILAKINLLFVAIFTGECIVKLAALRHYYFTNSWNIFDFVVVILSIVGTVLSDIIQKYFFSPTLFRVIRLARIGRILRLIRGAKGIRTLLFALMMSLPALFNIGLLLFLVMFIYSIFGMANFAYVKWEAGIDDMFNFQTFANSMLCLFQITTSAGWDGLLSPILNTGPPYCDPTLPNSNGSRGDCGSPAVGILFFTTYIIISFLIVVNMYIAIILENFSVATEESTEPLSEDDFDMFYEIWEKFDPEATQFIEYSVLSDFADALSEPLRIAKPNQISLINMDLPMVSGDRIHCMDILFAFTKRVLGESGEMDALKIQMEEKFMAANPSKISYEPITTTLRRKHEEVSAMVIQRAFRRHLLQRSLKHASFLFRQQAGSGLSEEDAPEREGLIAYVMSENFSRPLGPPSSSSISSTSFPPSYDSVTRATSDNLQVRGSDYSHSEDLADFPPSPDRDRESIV

## COc1ncc(Cl)cc1N1CCOc2cc(S(=O)(=O)Nc3nccs3)ccc21 [Example 111, 4-(5-Chloro-2-methoxypyridin-3-yl)-N-(thiazol-2-yl)-3,4-dihydro-2H-benzo[b][1,4]oxazine-7-sulfonamide]
Nav 1.7 [1]
  IC50: 1.05 µM
Nav 1.5
  IC50: 3.03 µM
Nav 1.7 [2]
  IC50: 0.0335 µM

## CC(C)c1ccc(N2CCOc3cc(S(=O)(=O)Nc4nccs4)ccc32)cc1 [Example 112, 4-(4-Isopropylphenyl)-N-(thiazol-2-yl)-3,4-dihydro-2H-benzo[b][1,4]oxazine-7-sulfonamide]
Nav 1.7 [1]
  IC50: 12.2 µM
Nav 1.5
  IC50: > 10 µM
Nav 1.7 [2]
  IC50: 1.66 µM

## COc1cc(C#N)ccc1N1C[C@H](C)Oc2cc(S(=O)(=O)Nc3nccs3)ccc21 (single isomer, unassigned) [Example 107]
Nav 1.7 [1]
  IC50: 0.309 µM
Nav 1.5
  IC50: > 10 µM
Nav 1.7 [2]
  IC50: 0.0285 µM

## Cc1cc(C#N)cc(N2CCOc3cc(S(=O)(=O)Nc4nccs4)ccc32)c1 [Example 124, 4-(3-Cyano-5-methylphenyl)-N-(thiazol-2-yl)-3,4-dihydro-2H-benzo[b][1,4]oxazine-7-sulfonamide]
Nav 1.7 [1]
  IC50: 2.69 µM
Nav 1.5
  IC50: 2.33 µM
Nav 1.7 [2]
  IC50: 0.16 µM

## O=S(=O)(Nc1ccccn1)c1ccc2c(c1)OCCN2c1ccc(C(F)(F)F)cc1C1=CCNCC1 [Example 62, N-(Pyridin-2-Yl)-4-(2-(1,2,3,6-Tetrahydropyridin-4-Yl)-4-(Trifluoromethyl)Phenyl)-3,4-Dihydro-2H-Benzo[B][1,4]Oxazine-7-Sulfonamide]
Nav 1.7 [1]
  IC50: 0.282 µM
Nav 1.5
  IC50: > 10 µM
Nav 1.7 [2]
  IC50: 0.049 µM

## O=S(=O)(Nc1nccs1)c1ccc2c(c1)OCCN2c1ccc2ncccc2c1 [Example 66, 4-(Quinolin-6-Yl)-N-(Thiazol-2-Yl)-3,4-Dihydro-2H-Benzo[B][1,4]Oxazine-7-Sulfonamide 2,2,2-Trifluoroacetate]
Nav 1.7 [1]; HEK293, values marked *, 4.9 μM, read-out: Nav 1.7 PX percent inhibition at 4.9 μM
  inhibition at 4.9 µM: 22.8%
Nav 1.5
  IC50: > 10 µM
Nav 1.7 [2]
  IC50: 3.73 µM

## O=S(=O)(Nc1nccs1)c1ccc2c(c1)OCCN2c1ccc(C(F)(F)F)cc1Cl [Example 5, 4-(2-Chloro-4-(Trifluoromethyl)Phenyl)-N-(Thiazol-2-Yl)-3,4-Dihydro-2H-Benzo[B][1,4]Oxazine-7-Sulfonamide]
Nav 1.7 [1]
  IC50: 0.322 µM
Nav 1.5
  IC50: 4.03 µM
Nav 1.7 [2]
  IC50: 0.245 µM

## O=S(=O)(Nc1nccs1)c1ccc2c(c1)OCCN2c1ccccc1C1CCOCC1 [Example 149, 4-(2-(Tetrahydro-2H-Pyran-4-Yl)Phenyl)-N-(Thiazol-2-Yl)-3,4-Dihydro-2H-Benzo[B][1,4]Oxazine-7-Sulfonamide]
Nav 1.7 [1]
  IC50: 2.55 µM
Nav 1.5
  IC50: > 10 µM
Nav 1.7 [2]
  IC50: 0.198 µM

## O=S(=O)(Nc1nccs1)c1ccc2c(c1)OCCN2c1ccc2scnc2c1 [Example 70, 4-(Benzo[D]Thiazol-5-Yl)-N-(Thiazol-2-Yl)-3,4-Dihydro-2H-Benzo[B][1,4]Oxazine-7-Sulfonamide 2,2,2-Trifluoroacetate]
Nav 1.7 [1]
  IC50: 5.69 µM
Nav 1.5
  IC50: > 10 µM
Nav 1.7 [2]
  IC50: 0.638 µM

## NCc1nsc(NS(=O)(=O)c2ccc3c(c2)OCCN3c2ccc(C(F)(F)F)cc2Cl)n1 [Example 8, N-(3-(Aminomethyl)-1,2,4-Thiadiazol-5-Yl)-4-(2-Chloro-4-(Trifluoromethyl)Phenyl)-3,4-Dihydro-2H-Benzo[B][1,4]Oxazine-7-Sulfonamide 2,2,2-Trifluoroacetate]
Nav 1.7 [1]
  IC50: 16 µM
Nav 1.5
  IC50: > 10 µM
Nav 1.7 [2]
  IC50: 7.58 µM

## O=S(=O)(Nc1nccs1)c1ccc2c(c1)OCCN2c1ccc(OCC(F)(F)F)cc1 [Example 113, N-(thiazol-2-yl)-4-(4-(2,2,2-trifluoroethoxy)phenyl)-3,4-dihydro-2H-benzo[b][1,4]oxazine-7-sulfonamide]
Nav 1.7 [1]
  IC50: 2.72 µM
Nav 1.5
  IC50: 3.37 µM
Nav 1.7 [2]
  IC50: 0.891 µM

## O=S(=O)(Nc1nccs1)c1ccc2c(c1)OCCN2c1cccc2ccncc12 [Example 68, 4-(Isoquinolin-8-Yl)-N-(Thiazol-2-Yl)-3,4-Dihydro-2H-Benzo[B][1,4]Oxazine-7-Sulfonamide 2,2,2-Trifluoroacetate]
Nav 1.7 [1]
  IC50: 1.75 µM
Nav 1.5
  IC50: 4.83 µM
Nav 1.7 [2]
  IC50: 0.158 µM
